Results: the supplement of paper PMC4862054

Legend:
Conditions in all cases: 72 h
CAL-148 [1] = tested on: CAL-148
Experimental: (§1)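 Drug sensitivity and resistance testing (DSRT) of breast cancer cell lines in 384-well plates, 5 concentrations in 10-fold dilutions over a compound-specific 10,000-fold range. After 72 h, cytotoxicity was read by CellTox Green fluorescence and viability by CellTiter-Glo luminescence (multiplexed), normalised to DMSO and benzethonium chloride controls. EC50 is the inflection point of the fitted dose-response curve (bottom asymptote free, so it can be relative for partial curves) and is censored at the highest tested concentration. Rows with DSS 0 (no meaningful response) were excluded.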

CAL-85-1 [2] = tested on: CAL-85-1
Outline: (§2)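 A 20 µl suspension of breast cancer cells was placed in 384-well plates that already contained compound at 5 concentrations in 10-fold steps across a compound-specific 10,000-fold range, and the plates were left for 72 h. CellTox Green fluorescence at 485/520 nm gave cell death, and CellTiter-Glo luminescence, read after 10 min at room temperature, gave viability. Each plate was normalised to 0.1 % DMSO and a positive kill control. EC50 was fitted from the curves and censored at the top concentration.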

SK-BR-3 [3] = tested on: SK-BR-3
Outline: as §2

HCC1599 [4] = tested on: HCC1599
Outline: as §2

Hs578T [5] = tested on: Hs578T
Outline: as §2

MDA-MB-453 [6] = tested on: MDA-MB-453
Outline: as §2

MFM-223 [7] = tested on: MFM-223
Outline: as §2

CAL-120 [8] = tested on: CAL-120
Outline: as §2

CAL-51 [9] = tested on: CAL-51
Outline: (§3)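 To measure viability, fluorescence at 560/590 nm was read after 2.5 µl CellTiter-Blue had been added for 2 h at 37 °C. Cells from breast cancer lines had been seeded in 20 µl suspension onto 384-well plates pre-loaded with compound dissolved in 5 µl medium and kept for 72 h. EC50 comes from a fitted percent-inhibition dose-response curve censored at the highest concentration, after per-plate normalisation to vehicle and a positive kill control, Z'-factor checks, and removal of rows with zero drug sensitivity score.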

MDA-MB-453 [10] = tested on: MDA-MB-453; remark: listed apart in the source
Outline: as §3

HDQ-P1 [11] = tested on: HDQ-P1
Outline: as §3

MDA-MB-231 [12] = tested on: MDA-MB-231
Outline: as §2

MCF-10A [13] = tested on: MCF-10A
Outline: as §2

HDQ-P1 [14] = tested on: HDQ-P1; remark: listed apart in the source
Outline: as §2

MDA-MB-231 [15] = tested on: MDA-MB-231; remark: listed apart in the source
Outline: as §3

MFM-223 [16] = tested on: MFM-223; remark: listed apart in the source
Outline: as §3

CAL-120 [17] = tested on: CAL-120; remark: listed apart in the source
Outline: as §3

SK-BR-3 [18] = tested on: SK-BR-3; remark: listed apart in the source
Outline: as §3

HCC1599 [19] = tested on: HCC1599; remark: listed apart in the source
Outline: as §3

Hs578T [20] = tested on: Hs578T; remark: listed apart in the source
Outline: as §3

BT-549 = tested on: BT-549
Outline: as §3

BT-474 [21] = tested on: BT-474
Outline: as §3

MDA-MB-231 [22] = tested on: MDA-MB-231; remark: listed apart in the source
Experimental: as §1

MCF-10A [23] = tested on: MCF-10A; remark: listed apart in the source
Experimental: as §1

Hs578T [24] = tested on: Hs578T; remark: listed apart in the source
Experimental: as §1

CAL-148 [25] = tested on: CAL-148; remark: listed apart in the source
Outline: as §3

CAL-148 [26] = tested on: CAL-148; remark: listed apart in the source
Outline: as §2

HCC1937 = tested on: HCC1937
Outline: as §3

MDA-MB-436 [27] = tested on: MDA-MB-436
Experimental: as §1

CAL-51 [28] = tested on: CAL-51; remark: listed apart in the source
Experimental: as §1

DU-4475 [29] = tested on: DU-4475
Outline: as §3

CAL-85-1 [30] = tested on: CAL-85-1; remark: listed apart in the source
Outline: as §3

DU-4475 [31] = tested on: DU-4475; remark: listed apart in the source
Outline: as §2

MDA-MB-468 [32] = tested on: MDA-MB-468
Outline: as §2

HCC1143 [33] = tested on: HCC1143
Outline: as §2

CAL-51 [34] = tested on: CAL-51; remark: listed apart in the source
Outline: as §2

BT-474 [35] = tested on: BT-474; remark: listed apart in the source
Outline: as §2

MDA-MB-468 [36] = tested on: MDA-MB-468; remark: listed apart in the source
Outline: as §3

HCC1143 [37] = tested on: HCC1143; remark: listed apart in the source
Outline: as §3

MDA-MB-436 [38] = tested on: MDA-MB-436; remark: listed apart in the source
Outline: as §3

SMILES: Cc1cnc(NC(=O)Nc2cc(Br)c(C)cc2OC[C@@H]2CNCCO2)cn1 [Rabusertib]
- EC50, CellTox Green (CAL-148 [1]): > 1000 nM
- EC50, CellTiter-Glo (CAL-85-1 [2]): > 1000 nM
- EC50, CellTiter-Glo (SK-BR-3 [3]): 918 nM
- EC50, CellTiter-Glo (HCC1599 [4]): 691 nM
- EC50, CellTiter-Glo (Hs578T [5]): 354 nM
- EC50, CellTiter-Glo (MDA-MB-453 [6]): 219 nM

SMILES: CNC(=O)c1cc(Oc2ccc(NC(=O)Nc3cc(C(C)(C)C)nn3-c3ccc4ncccc4c3)c(F)c2)ccn1 [Rebastinib]
- EC50, CellTiter-Glo (MFM-223 [7]): 31.3 nM
- EC50, CellTiter-Glo (CAL-120 [8]): 155 nM

SMILES: COc1cc2nccc(Oc3ccc(NC(=O)Nc4cc(C)on4)c(Cl)c3)c2cc1OC [Tivozanib]
- EC50, CellTiter-Blue viability (CAL-51 [9]): 7800 nM
- EC50, CellTiter-Blue viability (MDA-MB-453 [10]): 2320 nM
- EC50, CellTiter-Blue viability (HDQ-P1 [11]): 774 nM
- EC50, CellTiter-Glo (MDA-MB-231 [12]): 8500 nM
- EC50, CellTiter-Glo (MFM-223 [7]): 1820 nM
- EC50, CellTiter-Glo (MCF-10A [13]): 8730 nM
- EC50, CellTiter-Glo (MDA-MB-453 [6]): 5050 nM
- EC50, CellTiter-Glo (HDQ-P1 [14]): 3820 nM
- EC50, CellTiter-Blue viability (MDA-MB-231 [15]): 6790 nM
- EC50, CellTiter-Blue viability (MFM-223 [16]): 344 nM
- EC50, CellTiter-Blue viability (CAL-120 [17]): 4610 nM
- EC50, CellTiter-Blue viability (SK-BR-3 [18]): 4270 nM
- EC50, CellTiter-Blue viability (HCC1599 [19]): 4650 nM
- EC50, CellTiter-Blue viability (Hs578T [20]): 4590 nM
- EC50, CellTiter-Blue viability (BT-549): 7350 nM
- EC50, CellTiter-Blue viability (BT-474 [21]): 2500 nM

SMILES: CC1=C(/C=C/C(C)=C/C=C/C(C)=C/C(=O)O)C(C)(C)CCC1 [Tretinoin]
- EC50, CellTox Green (MDA-MB-231 [22]): 3200 nM
- EC50, CellTox Green (MCF-10A [23]): 676 nM
- EC50, CellTox Green (Hs578T [24]): 130 nM
- EC50, CellTiter-Blue viability (CAL-148 [25]): 43.5 nM
- EC50, CellTiter-Glo (MDA-MB-231 [12]): 2600 nM
- EC50, CellTiter-Glo (MCF-10A [13]): 1990 nM
- EC50, CellTiter-Glo (CAL-148 [26]): 354 nM
- EC50, CellTiter-Glo (SK-BR-3 [3]): 2210 nM
- EC50, CellTiter-Glo (HCC1599 [4]): 5530 nM
- EC50, CellTiter-Glo (Hs578T [5]): 6610 nM
- EC50, CellTiter-Glo (MDA-MB-453 [6]): 3230 nM
- EC50, CellTiter-Blue viability (SK-BR-3 [18]): 731 nM
- EC50, CellTiter-Blue viability (HCC1599 [19]): 133 nM

SMILES: C1CN1c1nc(N2CC2)nc(N2CC2)n1 [Triethylenemelamine]
- EC50, CellTiter-Blue viability (CAL-148 [25]): 3220 nM
- EC50, CellTiter-Blue viability (MDA-MB-453 [10]): 9220 nM
- EC50, CellTiter-Blue viability (MDA-MB-231 [15]): 698 nM
- EC50, CellTiter-Blue viability (BT-549): 9400 nM

SMILES: Oc1ncc(N(CCCl)CCCl)c(O)n1 [Uracil mustard]
- EC50, CellTiter-Blue viability (HCC1937): 962 nM

SMILES: CCCCC(=O)OCC(=O)[C@]1(O)Cc2c(O)c3c(c(O)c2[C@@H](O[C@H]2C[C@H](NC(=O)C(F)(F)F)[C@H](O)[C@H](C)O2)C1)C(=O)c1c(OC)cccc1C3=O [Valrubicin]
- EC50, CellTox Green (MDA-MB-436 [27]): > 5000 nM
- EC50, CellTox Green (CAL-51 [28]): 26.1 nM
- EC50, CellTox Green (CAL-148 [1]): 46.5 nM
- EC50, CellTiter-Blue viability (DU-4475 [29]): 65.5 nM
- EC50, CellTiter-Blue viability (CAL-51 [9]): 148 nM
- EC50, CellTiter-Blue viability (CAL-85-1 [30]): 1170 nM
- EC50, CellTiter-Blue viability (CAL-148 [25]): 123 nM
- EC50, CellTiter-Blue viability (MDA-MB-453 [10]): 830 nM
- EC50, CellTiter-Blue viability (HDQ-P1 [11]): 236 nM
- EC50, CellTiter-Glo (DU-4475 [31]): 462 nM
- EC50, CellTiter-Glo (MDA-MB-468 [32]): 290 nM
- EC50, CellTiter-Glo (MDA-MB-231 [12]): 4480 nM
- EC50, CellTiter-Glo (HCC1143 [33]): 697 nM
- EC50, CellTiter-Glo (MFM-223 [7]): 4320 nM
- EC50, CellTiter-Glo (MCF-10A [13]): 746 nM
- EC50, CellTiter-Glo (CAL-51 [34]): 162 nM
- EC50, CellTiter-Glo (CAL-85-1 [2]): 1340 nM
- EC50, CellTiter-Glo (CAL-148 [26]): 322 nM
- EC50, CellTiter-Glo (SK-BR-3 [3]): 343 nM
- EC50, CellTiter-Glo (HCC1599 [4]): 3220 nM
- EC50, CellTiter-Glo (Hs578T [5]): 944 nM
- EC50, CellTiter-Glo (MDA-MB-453 [6]): 3050 nM
- EC50, CellTiter-Glo (BT-474 [35]): 2640 nM
- EC50, CellTiter-Glo (HDQ-P1 [14]): 661 nM
- EC50, CellTiter-Blue viability (MDA-MB-468 [36]): 369 nM
- EC50, CellTiter-Blue viability (MDA-MB-231 [15]): 721 nM
- EC50, CellTiter-Blue viability (HCC1143 [37]): 525 nM
- EC50, CellTiter-Blue viability (MFM-223 [16]): 2810 nM
- EC50, CellTiter-Blue viability (CAL-120 [17]): 281 nM
- EC50, CellTiter-Blue viability (MDA-MB-436 [38]): 1520 nM
- EC50, CellTiter-Blue viability (HCC1937): 211 nM
- EC50, CellTiter-Blue viability (SK-BR-3 [18]): 170 nM
- EC50, CellTiter-Blue viability (HCC1599 [19]): 2320 nM
- EC50, CellTiter-Blue viability (Hs578T [20]): 1230 nM
- EC50, CellTiter-Blue viability (BT-549): 1090 nM
- EC50, CellTiter-Blue viability (BT-474 [21]): 916 nM
